# Earlier results, collected in PubChem BioAssay AID1259409 (Chemical Carcinogenesis Research Information System (CCRIS), 2018).
# System: rodent chemically induced tumor inhibition, incidence and multiplicity
# Assay: CCRIS tumor inhibitor studies
compound,measurement,setting,value
Cc1cc(C(C)(C)C)c(O)c(C(C)(C)C)c1,"tumour outcome (control, treated, inhibition, significance)","Carcinogen: 1,2-DIMETHYLHYDRAZINE DIHYDROCHLORIDE, 306-37-6, Dose [Inhibitor]: 6600 PPM IN DIET FOR 23 WK (STUDY DURATION: 23 WK), Route [Inhibitor]: ORAL, Species: RAT, Strain/Sex: SPRAGUE-DAWLEY MALE, Target Tissue: Type of Lesion: CECUM: TUMOR, Dose [Carcinogen]: 30 MG/KG IN SALINE 1/WK FOR THE FIRST 9 WK OF STUDY (10 DOSES), SIMULTANEOUSLY WITH INHIBITOR, Promoter: NONE USED","1/10 (10%), 4/9 (44%), -340%, not calculated"
same,"tumour outcome (control, treated, inhibition, significance)","Carcinogen: 1,2-DIMETHYLHYDRAZINE DIHYDROCHLORIDE, 306-37-6, Dose [Inhibitor]: 6600 PPM IN DIET FOR 23 WK (STUDY DURATION: 23 WK), Route [Inhibitor]: ORAL, Species: RAT, Strain/Sex: SPRAGUE-DAWLEY MALE, Target Tissue: Type of Lesion: COLON: TUMOR, Dose [Carcinogen]: 30 MG/KG IN SALINE 1/WK FOR THE FIRST 9 WK OF STUDY (10 DOSES), SIMULTANEOUSLY WITH INHIBITOR, Promoter: NONE USED","10/10 (100%), 9/9 (100%), 0%, not calculated"
same,"tumour outcome (control, treated, inhibition, significance)","Carcinogen: 1,2-DIMETHYLHYDRAZINE DIHYDROCHLORIDE, 306-37-6, Dose [Inhibitor]: 6600 PPM IN DIET FOR 23 WK (STUDY DURATION: 23 WK), Route [Inhibitor]: ORAL, Species: RAT, Strain/Sex: SPRAGUE-DAWLEY MALE, Target Tissue: Type of Lesion: DUODENUM: TUMOR, Dose [Carcinogen]: 30 MG/KG IN SALINE 1/WK FOR THE FIRST 9 WK OF STUDY (10 DOSES), SIMULTANEOUSLY WITH INHIBITOR, Promoter: NONE USED","8/10 (80%), 5/9 (56%), 30%, not calculated"
same,"tumour outcome (control, treated, inhibition, significance)","Carcinogen: 1,2-DIMETHYLHYDRAZINE, 540-73-8, Dose [Inhibitor]: 0, 0.5% IN DIET BEGINNING 1 WK POST LAST CARCINOGEN DOSE AND CONTINUING FOR 36 WK (STUDY DURATION: 40 WK), Route [Inhibitor]: ORAL, Species: RAT, Strain/Sex: F344/MALE, Target Tissue: Type of Lesion: COLON: ADENOMA, Dose [Carcinogen]: 20 MG/KG 1/WK FOR 4 WK, Promoter: NONE USED","5/18 (28%), 4/19 (21%), 25%, not calculated"
same,"tumour outcome (control, treated, inhibition, significance)","Carcinogen: 1,2-DIMETHYLHYDRAZINE, 540-73-8, Dose [Inhibitor]: 0, 0.5% IN DIET BEGINNING 1 WK POST LAST CARCINOGEN DOSE AND CONTINUING FOR 36 WK (STUDY DURATION: 40 WK), Route [Inhibitor]: ORAL, Species: RAT, Strain/Sex: F344/MALE, Target Tissue: Type of Lesion: COLON: CARCINOMA, Dose [Carcinogen]: 20 MG/KG 1/WK FOR 4 WK, Promoter: NONE USED","7/18 (39%), 9/19 (48%), -23%, not calculated"
same,"tumour outcome (control, treated, inhibition, significance)","Carcinogen: 1,2-DIMETHYLHYDRAZINE, 540-73-8, Dose [Inhibitor]: 0, 250 MG/KG BW IN CORN OIL 1/D FOR 2 WK PRIOR TO FIRST CARCINOGEN DOSE THEN 3/WK FOR DURATION OF STUDY (STUDY DURATION:, Route [Inhibitor]: GAVAGE, Species: RAT, Strain/Sex: BD6/MALE, Target Tissue: Type of Lesion: INTESTINE: TUMOR, Dose [Carcinogen]: 20 MG/KG BW 1/WK FOR 20 WK, Promoter: NONE USED","100%, 100%, 0%, not significant"
same,"tumour outcome (control, treated, inhibition, significance)","Carcinogen: 1,2-DIMETHYLHYDRAZINE, 540-73-8, Dose [Inhibitor]: 0.5% IN DIET STARTING 2 WK PRIOR TO CARCINOGEN TREATMENT AND CONTINUING FOR DURATION OF STUDY (STUDY DURATION: 28 WK), Route [Inhibitor]: ORAL, Species: RAT, Strain/Sex: SPRAGUE-DAWLEY/MALE, Target Tissue: Type of Lesion: COLON: ADENOCARCINOMA, Dose [Carcinogen]: 20 MG/KG BW IN BACTERIOSTATIC SALINE 1/WK FOR 20 WK, Promoter: NONE USED","9/14 (64%), 3/7 (43%), 33%, not calculated"
same,"tumour outcome (control, treated, inhibition, significance)","Carcinogen: 1,2-DIMETHYLHYDRAZINE, 540-73-8, Dose [Inhibitor]: 0.75% IN DIET FOR LIFE BEGINNING AT 8 WK OF AGE (STUDY DURATION: 10 MO POST FIRST CARCINOGEN TREATMENT), Route [Inhibitor]: ORAL, Species: MOUSE, Strain/Sex: BALB/FEMALE, Target Tissue: Type of Lesion: LARGE INTESTINE: TUMOR, Dose [Carcinogen]: 20 MG/KG BW IN SALINE FOR 10 WK BEGINNING AT 11 WK OF AGE, Promoter: NONE USED","9/18 (50%), 15/25 (60%), -20%, not significant"
same,"tumour outcome (control, treated, inhibition, significance)","Carcinogen: 1,2-DIMETHYLHYDRAZINE, 540-73-8, Dose [Inhibitor]: 0.75% IN DIET FOR LIFE BEGINNING AT 8 WK OF AGE (STUDY DURATION: 10 MO POST FIRST CARCINOGEN TREATMENT), Route [Inhibitor]: ORAL, Species: MOUSE, Strain/Sex: BALB/MALE, Target Tissue: Type of Lesion: LARGE INTESTINE: TUMOR, Dose [Carcinogen]: 20 MG/KG BODY WEIGHT IN SALINE FOR 10 WK BEGINNING AT 11 WK OF AGE, Promoter: NONE USED","15/20 (75%), 12/35 (34%), 55%, p=0.0036"
same,"tumour outcome (control, treated, inhibition, significance)","Carcinogen: 2-ACETYLAMINOFLUORENE, 53-96-3, Dose [Inhibitor]: 0, 100 PPM IN DIET CONCURRENTLY WITH CARCINOGEN FOR STUDY DURATION (STUDY DURATION: 76 WK), Route [Inhibitor]: ORAL, Species: RAT, Strain/Sex: F344/MALE, Target Tissue: Type of Lesion: LIVER: HEPATOCELLULAR TUMOR, Dose [Carcinogen]: 50 PPM IN DIET FOR 76 WK","20/20 (100%), 18/18 (100%), 0%, not calculated"
same,"tumour outcome (control, treated, inhibition, significance)","Carcinogen: 2-ACETYLAMINOFLUORENE, 53-96-3, Dose [Inhibitor]: 0, 100 PPM IN SEMISYNTHETIC DIET CONCURRENTLY WITH CARCINOGEN FOR STUDY DURATION (STUDY DURATION: 76 WK), Route [Inhibitor]: ORAL, Species: RAT, Strain/Sex: F344/MALE, Target Tissue: Type of Lesion: BLADDER: CARCINOMA, Dose [Carcinogen]: 50 PPM IN DIET FOR 76 WK","1/17 (6%), 0/16 (0%), 100%, not calculated"
same,"tumour outcome (control, treated, inhibition, significance)","Carcinogen: 2-ACETYLAMINOFLUORENE, 53-96-3, Dose [Inhibitor]: 0, 100 PPM IN SEMISYNTHETIC DIET CONCURRENTLY WITH CARCINOGEN FOR STUDY DURATION (STUDY DURATION: 76 WK), Route [Inhibitor]: ORAL, Species: RAT, Strain/Sex: F344/MALE, Target Tissue: Type of Lesion: LIVER: HEPATOCELLULAR TUMORS, Dose [Carcinogen]: 50 PPM IN DIET FOR 76 WK","17/17 (100%), 16/16 (100%), 0%, not significant"
same,outcome,"Carcinogen: 2-ACETYLAMINOFLUORENE, 53-96-3, Dose [Inhibitor]: 0, 300 PPM IN DIET CONCURRENTLY WITH CARCINOGEN FOR STUDY DURATION (STUDY DURATION: 76 WK), Route [Inhibitor]: ORAL, Species: RAT, Strain/Sex: F344/MALE, Target Tissue: Type of Lesion: LIVER: ADENOMA, Dose [Carcinogen]: 50 PPM IN DIET FOR 76 WK","19.2, 13.4, 30%, p<0.05"
same,"tumour outcome (control, treated, inhibition, significance)","Carcinogen: 2-ACETYLAMINOFLUORENE, 53-96-3, Dose [Inhibitor]: 0, 300 PPM IN DIET CONCURRENTLY WITH CARCINOGEN FOR STUDY DURATION (STUDY DURATION: 76 WK), Route [Inhibitor]: ORAL, Species: RAT, Strain/Sex: F344/MALE, Target Tissue: Type of Lesion: LIVER: HEPATOCELLULAR TUMOR, Dose [Carcinogen]: 50 PPM IN DIET FOR 76 WK","20/20 (100%), 17/17 (100%), 0%, not calculated"
same,"tumour outcome (control, treated, inhibition, significance)","Carcinogen: 2-ACETYLAMINOFLUORENE, 53-96-3, Dose [Inhibitor]: 0, 1000 PPM IN DIET CONCURRENTLY WITH CARCINOGEN FOR STUDY DURATION (STUDY DURATION: 76 WK), Route [Inhibitor]: ORAL, Species: RAT, Strain/Sex: F344/MALE, Target Tissue: Type of Lesion: LIVER: HEPATOCELLULAR TUMOR, Dose [Carcinogen]: 50 PPM IN DIET FOR 76 WK","20/20 (100%), 19/19 (100%), 0%, not calculated"
